Measured values reported in patent US7906518B2, “Therapeutic compounds” (CBT Development Limited, priority 2006, dated 2011).

Assays:
adenosine A2A receptor = adenosine A2A receptor (Homo sapiens, UniProt P29274); assay: EC50 at the adenosine A2A receptor; type: biochemical
[1] = system: streptozocin induced static allodynia; assay: streptozocin-induced diabetic neuropathy, static allodynia (von Frey hairs); type: in vivo; details: rats
Experimental: Diabetes was induced by a single i.p. injection of 50 mg/kg streptozocin (Sigma, 50 mg/ml/kg in citrate buffered saline 33 mM pH 4.5). Control animals received single i.p. injection of citrate buffered saline.

[2] = monkey, multiple oral dosing, 14C-labelled; cited from earlier work

adenosine A2A receptor, sequence (P29274 whole entry): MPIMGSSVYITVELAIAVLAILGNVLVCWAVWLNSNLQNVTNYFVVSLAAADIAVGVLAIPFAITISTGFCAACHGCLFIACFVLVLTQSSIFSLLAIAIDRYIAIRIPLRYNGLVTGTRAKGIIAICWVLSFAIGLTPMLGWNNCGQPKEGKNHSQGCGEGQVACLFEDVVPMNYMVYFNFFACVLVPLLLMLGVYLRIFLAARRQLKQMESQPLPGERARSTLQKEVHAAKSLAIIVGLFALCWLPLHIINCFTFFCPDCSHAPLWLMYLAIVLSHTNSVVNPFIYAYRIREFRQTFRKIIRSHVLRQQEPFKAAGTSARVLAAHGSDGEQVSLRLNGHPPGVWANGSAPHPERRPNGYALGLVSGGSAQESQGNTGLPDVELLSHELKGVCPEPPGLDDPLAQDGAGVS

| Compound | EC50 (adenosine A2A receptor) [nM] | reversal of streptozocin induced static allodynia (PWT), all doses ([1]; 0.6-[…] po) | reversal of streptozocin induced static allodynia (PWT), top dose ([1]; top dose […] po) | drug level in red blood cells compared to Ribavarin [2] | drug level in the liver compared to Ribavarin [2] |
| --- | --- | --- | --- | --- | --- |
| COc1nc(N)c2ncn([C@@H]3O[C@H](CO)[C@@H](O)[C@H]3O)c2n1 [Spongosine, 2-methoxyadenosine] | ~1000 | All doses were effective at reversing allodynia | fully reversed the allodynia | – | – |
| N=C(N)c1ncn([C@@H]2O[C@H](CO)[C@@H](O)[C@H]2O)n1 [Viramidine] | – | – | – | only half in red blood cells | three times the drug level in the liver |
